In the METLIN SMRT retention time set (Domingo-Almenara et al. 2019) one finds RP-LC retention time data, which are given here for 60 molecules.

SMILES strings stand for the structures.

A short description of this data set: gradient 5% acetonitrile 3 min, to 50% in 2 min, to 85% in 15 min, held 3 min, 100 µL/min. Conditions: column: Zorbax Extend-C18 2.1 x 50 mm; eluents: water / acetonitrile, 0.1% formic acid. In short, it runs like this:
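A Zorbax Extend-C18 column (2.1 × 50 mm, 1.8 μm) run at 100 μL/min with water and acetonitrile, both containing 0.1% formic acid, separated mixtures of ~100 pure standards. The HPLC was coupled to a quadrupole time-of-flight mass spectrometer operated in positive and negative ionization mode, with dead and dwell volumes of 40 μL and 900 μL. Each retention time was taken from a computationally picked adduct peak that was then manually inspected.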
Turning to `COc1ccc2c(c1)C1(CCN(C(=O)c3ccccc3)C1)C(=O)N2` (stereo not given), the RP-LC retention time amounted to 692 s. The result for `COC(=O)Cn1c(-c2ccc(C)cc2)cnc1SCC(=O)Nc1nnc(C)s1` reads 680 s; that for `O=C1NCCCn2cc(S(=O)(=O)Nc3ccc(Oc4ccccc4)cc3)cc21`, 768 s; that for `Cc1ccc(C2CC(=O)c3cnc(Nc4nc(C)c5cc(C)c(C)cc5n4)nc3C2)cc1` (stereo not given), 862 s. For `CCCNC(=O)c1ccc(-c2ccc(N3CCSCC3)nc2)cc1`, the RP-LC retention time is 666 s.

For the molecule `O=C1COc2c(CCNCCN(C(=O)CCNCCc3ccc(Cl)c(Cl)c3)C3CCCCC3)ccc(O)c2N1`, the RP-LC retention time stood at 691 s. Molecule `OC(CN1CCC(Cc2ccc(F)cc2)CC1)c1ccc(Cl)cc1` (stereo not given) returned an RP-LC retention time of 825 s.

On to `CCCN(CC1CCOC1)S(=O)(=O)Cc1ccccc1F` (stereo not given), for which the RP-LC retention time stood at 878 s. With `CCCN(CC1CCOC1)S(=O)(=O)c1ccccc1C(F)(F)F` (stereo not given), the RP-LC retention time is 946 s. For `CCn1nc2ccc(S(=O)(=O)N3CCCCC3)cn2c1=O`, the RP-LC retention time turned out to be 744 s.

For `Cc1onc(-c2ccccc2Cl)c1C(=O)NC1CC1`, the RP-LC retention time worked out at 746 s.

With `Cc1nn(C)c(C)c1S(=O)(=O)N1CCC(c2noc(-c3cccnc3)n2)C1` (stereo not given), the RP-LC retention time came out at 662 s. The result for `CCN(CC)C(=O)C1CCN(c2nc3ccc(-c4cccs4)nc3s2)CC1` reads 992 s; that for `O=C(c1cccc(Cl)c1)N1CCN(S(=O)(=O)c2cc3c4c(c2)CCC(=O)N4CCC3)CC1`, 843 s; that for `O=C(CSc1nnc2ccc(-c3cccnc3)nn12)NCc1cccs1`, 588 s. `Cc1ccc2cccc(Oc3ncnc(N)c3[N+](=O)[O-])c2n1` returned an RP-LC retention time of 623 s. `Cc1ccc(C)c(S(=O)(=O)N2CCc3c(c(-c4nnc(-c5ccccc5)o4)nn3C)C2)c1` showed an RP-LC retention time of 1020 s. `COCc1cc(=O)n(CC(=O)Nc2ccc(Cl)cc2)c(N)n1` gave an RP-LC retention time of 641 s. The result for `COC(=O)c1ccc(Oc2cc(C)nc(-n3nc(C)cc3C)n2)cc1` reads 912 s; that for `CCOCCCN1C(=O)CN(C2CCCCCC2)C(=O)C1c1ccc(OC)cc1` (stereo not given), 902 s; that for `COC(=O)c1cnc2nc(-c3ccccc3Cl)nn2c1C`, 860 s. `Cc1ccc(Cn2cc(-c3nc(-c4ccc(Cl)cc4)no3)ccc2=O)cc1` showed an RP-LC retention time of 1250 s. `O=C(Nc1cc(F)cc(F)c1)Nc1cccc(-c2ccc(N3CCOCC3)nn2)c1`: the RP-LC retention time was found to be 748 s. As for `CCC1Oc2ccc(S(=O)(=O)N3CCC(C(=O)Nc4ccc5c(c4)OCO5)CC3)cc2NC1=O` (stereo not given), the RP-LC retention time came to 809 s.

Consider `O=C(Cc1cccs1)Nc1cccn2nc(C3CCC3)nc12`, for which the RP-LC retention time worked out at 889 s. In turn, `COc1ccc(-c2csc(NC(=O)Cn3c(=O)oc4ccccc43)n2)cc1OC` registered an RP-LC retention time of 828 s. Under `CCn1ncc(NC(=O)c2ccc(C)cc2)c(N2CCOCC2)c1=O` stands 816 s; under `CCc1csc(-c2ccc(N3CCN(C(=O)c4ccsc4)CC3)nc2)n1`, 853 s; under `CC(C)CN1C(=O)CCc2cc(NS(=O)(=O)c3cccc(Cl)c3)ccc21`, 932 s. In the case of `COc1ccc(-c2noc(Cc3nc(-c4ccc(Br)cc4)cs3)n2)c(OC)c1`, the RP-LC retention time is 1180 s.

Take `Clc1nnc2c3ccccc3ccn12`: the RP-LC retention time was 747 s. The result for `Cc1ccc(C)c(CNC(=O)c2ccc(NC(=O)C3CC3)cc2N2CCOCC2)c1` reads 856 s; that for `CCn1cc(C(=O)NC(C)c2ccc(OC)c(OC)c2)c(=O)c2ccc(C)nc21` (stereo not given), 885 s; that for `O=C(Nc1nnc(SCc2nnc(-c3cccc(F)c3)o2)s1)c1ccccc1`, 887 s. For `CCCCN(C)CCNC(=O)C1c2ccccc2C(=O)N2CCc3cc(OC)c(OC)cc3C12` (stereo not given), the RP-LC retention time is 633 s. The result for `CC(C)Cc1nc(N2CCNCC2)c(C#N)c2c1COC(C)(C)C2` reads 683 s; that for `CCOc1ccccc1-c1noc(-c2nnn3c2COC(c2cccc(OC)c2)C3)n1` (stereo not given), 1080 s. As for `CC(C)CC(=O)Nc1nc(-c2ccc3c(c2)NC(=O)CO3)cs1`, the RP-LC retention time was 787 s. The molecule `CCOC(=O)c1ccc(OC(=O)c2cn(C)c(=O)c3ccccc23)cc1` returned an RP-LC retention time of 953 s. With `COCCNC(=O)COc1nc(C)nc2onc(-c3ccc(F)cc3)c12`, the RP-LC retention time came out at 782 s. `Cn1cncc1C(=O)N1CC(F)(F)C[C@H]1c1nc(C2CC2)no1` had an RP-LC retention time of 620 s.

As for `COc1c(C(=O)NCCN2CCCCC2C)sc2cc(Cl)ccc12` (stereo not given), the RP-LC retention time worked out at 710 s. Under `CC(C)N1C(=O)c2cccnc2Sc2cc(NC(=O)COc3ccccc3)ccc21` stands 889 s; under `CC(Oc1ccccc1)C(=O)N1CC(c2nc(-c3ccsc3)nn2C)C1` (stereo not given), 766 s. `COc1ccc(S(=O)(=O)N2CCc3nn(C)c(=O)n3CC2)cc1Cl` registered an RP-LC retention time of 710 s. The result for `CCCCn1cc(S(=O)(=O)N2CCN(c3ccccc3)CC2)c2cccnc21` reads 1120 s; that for `O=C(CCn1cnc2cc(-c3noc(-c4ccc(Br)o4)n3)ccc21)N1CCCCC1`, 796 s; that for `Cc1ccc(S(=O)(=O)N2CCCOC2CNC(=O)C(=O)NCCCn2ccnc2)cc1` (stereo not given), 558 s.

For `C=CCNC(=O)C1CCCN(C(=O)Nc2ccc(NC(=O)Nc3ccccc3F)cc2)C1` (stereo not given), the RP-LC retention time was found to be 731 s. Under `CCN(CCCNC(=O)C1CCN(c2ncnc3c2oc2ccccc23)CC1)c1ccccc1` stands 611 s; under `O=C(COc1ccccc1-c1nnc(-c2ccccc2)o1)NCc1ccc2c(c1)OCO2`, 1030 s. `Cc1nnc(NC(=O)Cc2csc(Nc3ccc(OC(F)(F)F)cc3)n2)s1` came in with an RP-LC retention time of 790 s. In turn, `Cc1cccc(NC(=O)c2cc(C)n3nccc3n2)c1C` displayed an RP-LC retention time of 995 s. As to `CN(C)c1ccc(C(=O)N2CCN(c3cc(-c4ccccc4)[nH]n3)CC2)cc1`, the RP-LC retention time was 757 s. Turning to `O=C(Nc1ccc(C(=O)O)c(O)c1)c1cc2ccccc2c(=O)o1`, the RP-LC retention time came out at 770 s.

As to `CC1(C)Cc2c(C#N)c(N3CCN(C(=O)c4ccc([N+](=O)[O-])cc4)CC3)nc(-c3ccccc3)c2CO1`, the RP-LC retention time was 1140 s. As for `COc1ccc(C2CC(=O)N(c3ccc(F)c(Cl)c3)C(=O)C2)cc1`, the RP-LC retention time amounted to 980 s. For `Cc1cc(F)ccc1NC(=O)C1CCCN(S(=O)(=O)c2c[nH]c(C(=O)N3CCCCCC3)c2)C1` (stereo not given), the RP-LC retention time was determined as 857 s. As to `CCOCCCNC(=O)N1CCCCCC1c1ccc(C)cc1` (stereo not given), the RP-LC retention time is 954 s.

`COc1cccc(CNC(=O)NC2CCN(c3cc(C)cc(C)c3)C2=O)c1` (stereo not given) came in with an RP-LC retention time of 840 s.
